Measurements published in US20090068290A1, “BIFEPRUNOX DOSES FOR TREATING SCHIZOPHRENIA” (priority 2006, published 2009).

Assays:
[1] = tested on: adult subjects with schizophrenia; experiment: CGI Improvement score, Clinical Study Three; format: in vivo, human; set-up: CGI Improvement Very Much Worse, %: dose or concentration left out as unconfirmed; details: LOCF
Protocol: CLINICAL STUDY THREE: Table 29 below presents frequencies for the seven categories of CGI Improvement ratings by visit using LOCF for the ITT population. Statistical differences among treatment groups regarding the mean CGI Improvement score were evaluated using a CMH test stratified by pooled center applied to the frequencies of the seven CGI Improvement categories with modified ridit scores. […] The treatment comparison of the 30 mg bifeprunox group versus placebo group was not notable (p=0.162). No notable differences were observed between the placebo group and either of the two bifeprunox dose groups at any other time point during the study (Week 1 through Week 4).

[2] = tested on: adult subjects with schizophrenia; experiment: PANSS negative subscale score, Clinical Study One; format: in vivo, human; details: ITT; for PANSS Negative Subscale Score, Trt Effect (bifeprunox—placebo): ANCOVA
Protocol: There were five treatment groups in this study. […] Study medication was administered once daily. After Baseline measurements were performed, the titration phase was begun. Bifeprunox treated subjects were titrated up to 5 mg, 10 mg or 20 mg according to a standardized titration schedule (Day 1: 0.125 mg, Day 2: 0.25 mg, Day 3: 0.5 mg, Day 4: 1.0 mg, Day 5: 2.0 mg, Day 6: 5.0 mg, Day 7: 10.0 mg, Day 8: 20 mg). When the assigned dose was reached, subjects were maintained at that dose for the remainder of the six-week treatment period.
The change in the Positive and Negative Symptom Scale (PANSS) total score, from baseline to endpoint, was the primary outcome measure. Secondary efficacy measures included: PANSS positive, PANSS negative, PANSS general psychopathology (GPP) score, PANSS-derived Brief Psychiatric Rating Scale (BPRS) score, Clinical Global Impressions-Severity of Illness (CGI-S), CGI-Improvement (CGI-I) scores, and responder rates. Safety and tolerability evaluations included extrapyramidal symptoms (EPS), weight gain, lipid profile, and serum prolactin.

[3] = Bifeprunox 10 mg, Endpoint LOCF
[4] = Bifeprunox 20 mg, Endpoint LOCF

**Q.** Which results are given for O=c1[nH]c2cccc(N3CCN(Cc4cccc(-c5ccccc5)c4)CC3)c2o1 [Bifeprunox, 7-[4-([1,1′-biphenyl]-3-ylmethyl)-1-piperazinyl]-2(3H)-benzoxazolone]?
**A.** CGI Improvement Minimally Improved, % ([1]; 30 mg, Week 2): (45%); CGI Improvement Minimally Worse, % ([1]; 30 mg, Week 2): (9%); CGI Improvement Much Improved, % ([1]; 30 mg, Week 2): (21%); CGI Improvement Much Worse, % ([1]; 30 mg, Week 2): (4%); CGI Improvement No Change, % ([1]; 30 mg, Week 2): (19%); CGI Improvement Very Much Improved, % ([1]; 30 mg, Week 2): (2%); CGI Improvement Minimally Improved, % ([1]; 30 mg, Week 4): (30%); CGI Improvement Minimally Worse, % ([1]; 30 mg, Week 4): (11%); CGI Improvement Much Improved, % ([1]; 30 mg, Week 4): (32%); CGI Improvement Much Worse, % ([1]; 30 mg, Week 4): (6%); CGI Improvement No Change, % ([1]; 30 mg, Week 4): (17%); CGI Improvement Very Much Improved, % ([1]; 30 mg, Week 4): (5%); CGI Improvement Minimally Improved, % ([1]; 30 mg, Week 6/Endpoint): (28%); CGI Improvement Minimally Worse, % ([1]; 30 mg, Week 6/Endpoint): (13%); CGI Improvement Much Improved, % ([1]; 30 mg, Week 6/Endpoint): (33%); CGI Improvement Much Worse, % ([1]; 30 mg, Week 6/Endpoint): (7%); CGI Improvement No Change, % ([1]; 30 mg, Week 6/Endpoint): (15%); CGI Improvement Very Much Improved, % ([1]; 30 mg, Week 6/Endpoint): (5%); CGI Improvement Minimally Improved, % ([1]; 40 mg, Week 2): (37%); CGI Improvement Minimally Worse, % ([1]; 40 mg, Week 2): (7%); CGI Improvement Very Much Improved, % ([1]; 40 mg, Week 2): (<1%.); CGI Improvement Minimally Improved, % ([1]; 40 mg, Week 4): (29%); CGI Improvement Minimally Worse, % ([1]; 40 mg, Week 4): (8%); CGI Improvement Very Much Improved, % ([1]; 40 mg, Week 4): (3%); CGI Improvement Minimally Improved, % ([1]; 40 mg, Week 6/Endpoint): (30%); CGI Improvement Minimally Worse, % ([1]; 40 mg, Week 6/Endpoint): (8%); CGI Improvement Very Much Improved, % ([1]; 40 mg, Week 6/Endpoint): (7%); CGI Improvement Much Improved, % ([1]; Week 2): (19%); CGI Improvement Much Worse, % ([1]; Week 2): (10%); CGI Improvement No Change, % ([1]; Week 2): (22%); CGI Improvement Very Much Worse, % ([1]; Week 2): (<1%); CGI Improvement Much Improved, % ([1]; Week 4): (30%); CGI Improvement Much Worse, % ([1]; Week 4): (11%); CGI Improvement No Change, % ([1]; Week 4): (17%); CGI Improvement Very Much Worse, % ([1]; Week 4): (1%); CGI Improvement Much Improved, % ([1]; Week 6/Endpoint): (27%); CGI Improvement Much Worse, % ([1]; Week 6/Endpoint): (11%); CGI Improvement No Change, % ([1]; Week 6/Endpoint): (16%); CGI Improvement Very Much Worse, % ([1]; Week 6/Endpoint): (1%); Change from Baseline in PANSS Negative Subscale Score, Mean (S.D.) ([2]; Bifeprunox 5 mg, Endpoint LOCF): −2.2 (4.9); Change from Baseline in PANSS Negative Subscale Score, Median ([2]; Bifeprunox 5 mg, Endpoint LOCF): −2; PANSS Negative Subscale Score, Trt Effect (bifeprunox—placebo) ([2]; Bifeprunox 5 mg, Endpoint LOCF): −1.0; Change from Baseline in PANSS Negative Subscale Score, Mean (S.D.) ([2]; Bifeprunox 5 mg, Week 1, LOCF): −1.1 (3.9); Change from Baseline in PANSS Negative Subscale Score, Median ([2]; Bifeprunox 5 mg, Week 1, LOCF): −1; Change from Baseline in PANSS Negative Subscale Score, Mean (S.D.) ([2]; Bifeprunox 5 mg, Week 2, LOCF): −1.8 (4.4); Change from Baseline in PANSS Negative Subscale Score, Median ([2]; Bifeprunox 5 mg, Week 2, LOCF): −2; Change from Baseline in PANSS Negative Subscale Score, Mean (S.D.) ([2]; Bifeprunox 5 mg, Week 3, LOCF): −1.8 (4.7); Change from Baseline in PANSS Negative Subscale Score, Median ([2]; Bifeprunox 5 mg, Week 3, LOCF): −2; Change from Baseline in PANSS Negative Subscale Score, Mean (S.D.) ([2]; Bifeprunox 5 mg, Week 4, LOCF): −2.0 (4.9); Change from Baseline in PANSS Negative Subscale Score, Median ([2]; Bifeprunox 5 mg, Week 4, LOCF): −1; Change from Baseline in PANSS Negative Subscale Score, Mean (S.D.) [2, 3]: −1.7 (4.7); Change from Baseline in PANSS Negative Subscale Score, Median [2, 3]: −1; Change from Baseline in PANSS Negative Subscale Score, Mean (S.D.) ([2]; Bifeprunox 10 mg, Week 1, LOCF): −1.4 (3.4); Change from Baseline in PANSS Negative Subscale Score, Median ([2]; Bifeprunox 10 mg, Week 1, LOCF): −1; Change from Baseline in PANSS Negative Subscale Score, Mean (S.D.) ([2]; Bifeprunox 10 mg, Week 2, LOCF): −1.5 (4.2); Change from Baseline in PANSS Negative Subscale Score, Median ([2]; Bifeprunox 10 mg, Week 2, LOCF): −1; Change from Baseline in PANSS Negative Subscale Score, Mean (S.D.) ([2]; Bifeprunox 10 mg, Week 3, LOCF): −1.7 (5.0); Change from Baseline in PANSS Negative Subscale Score, Median ([2]; Bifeprunox 10 mg, Week 3, LOCF): −1; Change from Baseline in PANSS Negative Subscale Score, Mean (S.D.) ([2]; Bifeprunox 10 mg, Week 4, LOCF): −1.5 (4.6); Change from Baseline in PANSS Negative Subscale Score, Median ([2]; Bifeprunox 10 mg, Week 4, LOCF): −1; Change from Baseline in PANSS Negative Subscale Score, Mean (S.D.) [2, 4]: −2.6 (5.3); Change from Baseline in PANSS Negative Subscale Score, Median [2, 4]: −2; PANSS Negative Subscale Score, Trt Effect (bifeprunox—placebo) [2, 4]: −1.4
